Measured values: publication PMC8404200, “Synthetic Glycolipids as Molecular Vaccine Adjuvants: Mechanism of Action in Human Cells and In Vivo Activity” (Journal of Medicinal Chemistry, 2021)

Biological target: T1, MD-2 (TLR4/MD-2 complex) (Homo sapiens, UniProt Q9Y6Y9)
T1 construct: gene LY96; Recombinant human TLR4/MD2 complex; with TLR4
Assay: SPR (Biacore X100) on immobilized recombinant human TLR4/MD-2; agonism supported in HEK-Blue hTLR4 cells
Type: binding

T1 sequence (Q9Y6Y9 19-160): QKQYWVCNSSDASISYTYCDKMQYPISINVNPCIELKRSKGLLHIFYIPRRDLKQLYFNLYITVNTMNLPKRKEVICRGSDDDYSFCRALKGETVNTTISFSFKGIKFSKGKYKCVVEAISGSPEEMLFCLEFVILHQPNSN
T1 sequence (O00206 24-839 partner): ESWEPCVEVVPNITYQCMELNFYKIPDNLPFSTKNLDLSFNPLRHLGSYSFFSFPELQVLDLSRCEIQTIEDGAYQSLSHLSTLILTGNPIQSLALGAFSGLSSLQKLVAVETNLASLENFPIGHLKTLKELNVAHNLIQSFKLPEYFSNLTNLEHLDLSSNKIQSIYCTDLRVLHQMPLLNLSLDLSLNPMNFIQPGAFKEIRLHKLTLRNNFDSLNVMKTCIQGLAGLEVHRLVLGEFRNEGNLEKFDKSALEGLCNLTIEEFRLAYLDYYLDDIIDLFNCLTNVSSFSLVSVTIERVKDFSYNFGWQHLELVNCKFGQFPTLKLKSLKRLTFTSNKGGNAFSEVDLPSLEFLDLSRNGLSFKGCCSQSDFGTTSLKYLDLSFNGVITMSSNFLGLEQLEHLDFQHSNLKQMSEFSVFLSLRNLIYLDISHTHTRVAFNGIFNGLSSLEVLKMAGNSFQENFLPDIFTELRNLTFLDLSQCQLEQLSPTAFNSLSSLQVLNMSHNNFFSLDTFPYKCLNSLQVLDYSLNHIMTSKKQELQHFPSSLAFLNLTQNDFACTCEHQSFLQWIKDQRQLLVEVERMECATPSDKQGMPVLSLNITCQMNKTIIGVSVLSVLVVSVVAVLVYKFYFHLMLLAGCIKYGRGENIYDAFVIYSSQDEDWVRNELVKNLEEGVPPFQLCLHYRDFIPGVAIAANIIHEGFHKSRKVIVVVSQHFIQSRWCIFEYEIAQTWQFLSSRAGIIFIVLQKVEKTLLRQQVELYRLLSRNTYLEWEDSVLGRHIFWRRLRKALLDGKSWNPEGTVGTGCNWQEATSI

| Kd | SMILES |
| --- | --- |
| 180 nM | CCCCCCCCCCCCCC(=O)N[C@H]1[C@@H](OP(=O)(O)O)O[C@H](CO)[C@@H](OC(=O)CCCCCCCCCCCCC)[C@@H]1OC(=O)CCCCCCCCCCCCC [FP11] |
| 570 nM | CCCCCCCCCCCC(=O)N[C@H]1[C@@H](OP(=O)(O)O)O[C@H](CO)[C@@H](OC(=O)CCCCCCCCCCC)[C@@H]1OC(=O)CCCCCCCCCCC [FP18] |
